# Test results published in patent publication US7575882B2, “Compositions and methods for identifying modulators of TRPV2” (Janssen Pharmaceutica N. V., priority 2005, dated 2009).
# Read-outs that look alike come from different tables or passages of the source.
# Experiments:
# rat TRPV2 = molecular target: T1, rat TRPV2 (Rattus norvegicus, UniProt Q9WUD2, A713V/L151P/T158I); assay: FLIPR calcium mobilization assay in rat TRPV2-expressing HEK293 cells; type: cell-based
# T1 construct: A cDNA fragment encoding the full-length rat TRPV2 was subcloned into pCI-neo; expressed in transfected cells
# T1 sequence (Q9WUD2 1-761 L151P/T158I/A713V): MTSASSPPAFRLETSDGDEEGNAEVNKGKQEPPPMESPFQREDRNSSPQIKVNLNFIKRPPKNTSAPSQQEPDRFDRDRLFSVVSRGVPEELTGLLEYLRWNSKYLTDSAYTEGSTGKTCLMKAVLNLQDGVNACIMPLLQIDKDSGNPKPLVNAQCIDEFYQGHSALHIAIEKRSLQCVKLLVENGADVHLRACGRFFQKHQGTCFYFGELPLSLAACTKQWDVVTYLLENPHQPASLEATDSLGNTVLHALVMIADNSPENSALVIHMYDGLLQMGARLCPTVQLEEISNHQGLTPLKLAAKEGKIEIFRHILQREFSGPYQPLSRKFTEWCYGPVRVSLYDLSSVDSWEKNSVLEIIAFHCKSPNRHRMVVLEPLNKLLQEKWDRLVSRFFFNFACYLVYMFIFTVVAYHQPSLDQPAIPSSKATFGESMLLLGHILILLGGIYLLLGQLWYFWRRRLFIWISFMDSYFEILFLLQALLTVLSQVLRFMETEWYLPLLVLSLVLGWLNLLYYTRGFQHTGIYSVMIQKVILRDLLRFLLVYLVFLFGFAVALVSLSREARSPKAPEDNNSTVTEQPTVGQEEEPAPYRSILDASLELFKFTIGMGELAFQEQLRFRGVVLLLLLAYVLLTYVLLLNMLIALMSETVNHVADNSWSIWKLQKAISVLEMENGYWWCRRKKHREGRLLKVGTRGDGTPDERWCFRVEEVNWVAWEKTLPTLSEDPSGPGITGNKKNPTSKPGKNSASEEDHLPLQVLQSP
# Procedure: A cDNA fragment encoding the full-length rat TRPV2 was subcloned into pCI-neo (Promega, Madison, Wis.) mammalian expression vector. The expression construct was then transfected into HEK293 cells with FuGene6 transfection reagent (Roche, Indianapolis, Ind.) according to the vendor's protocol. Stable cell lines were selected by growth in the presence of 400 μg/ml G418. Single G418 resistant clones were isolated and purified.
# The rat TRPV2-expressing HEK293 cells were seeded in a 384-well plate at a concentration of 5×10^3 cells/well and incubated overnight at 37° C. The following day, the cells were loaded with buffer and calcium dye 3 (Molecular Devices, Sunnyvale, Calif.) in a final volume of 50 μl and incubated for 30 minutes at 37° C./5% CO2 followed by 30 additional minutes at room temperature. The fluorescence intensity was measured by a fluorescent plate reader (FLIPR) before, during and after the addition of test compounds.
# All data was normalized to that observed for 100 μM Δ^9-THC.
# human TRPV1 = molecular target: T2, human TRPV1 (Homo sapiens, UniProt Q8NER1); assay: FLIPR assay in HEK293 cells expressing human TRPV1; type: cell-based; conditions: Δ^9-THC 240 μM, cannabinol 600 μM, others 120 μM
# T2 construct: expressed in transfected cells; host or cells: HEK293
# Procedure: A selected number of cannabinoids were also tested against HEK293 cells expressing human TRPV1 and canine TRPM8 in the FLIRP assay.
# CB2 receptor = conditions: cited from earlier work
# [1] = tested on: deletion mutants of rat TRPV2; assay: Calcium mobilization in HEK293 cells expressing rat TRPV2 deletion mutants; type: cell-based; conditions: mutants lacking N-terminal 20, 32/33, 65/66 or C-terminal 11, 23, 32 residues
# Description: DNA molecules encoding the deletion mutants were amplified by PCR using the rat TRPV2 cDNA as the template. For amino-terminal deletions, a series N-terminal forward primers encoding an initiating methionine in frame with sequences matching adjacent regions of the desired start at residues G21 (mutant N20, SEQ ID NO:11), P33 (N32, SEQ ID NO:12), A66 (N65, SEQ ID NO:13) and V84 (N83, SEQ ID NO:14) paired with a C-terminal reverse primer were used for PCR amplification. While for carboxyl-terminal deletions, a forward N-terminal primer paired with a series C-terminal reverse primers ending at residues R706 (C51, SEQ ID NO:7), P729 (C32, SEQ ID NO:8), P738 (C23, SEQ ID NO:9) and E750 (C11, SEQ ID NO:10) with an in-frame stop codon at the terminal end of the open reading frame were used for amplification. After PCR amplification and purification, the DNA molecules encoding the deletion mutants were subcloned into the pCI-neo mammalian expression vector and the constructs were confirmed by DNA sequencing. […]
# The deletion mutant constructs were then transfected into HEK293 cells using Fugene 6 reagent (Roche) as per the manufacturer's instructions. […] Calcium mobilization was triggered using Δ^9-THC or 2-APB or elevated temperature buffer and measured using either FLIPR or FLEX STATION instruments.
# [2] = molecular target: T3, rat and human TRPV2 chimera RHR (Rattus norvegicus, UniProt Q9WUD2, A398L/D418K/D570G/D595E/E431N/E493A/E569T/E577V/E585D/F395L/F429V/I422A/INS586GN/K566E/L151P/L436T/L450V/L461V/L478F/L485V/L503S/M468I/M492L/N571P/P420Q/P587G/P589Q/Q419K/R460H/R490C/R560Q/R563W/R617H/S416T/S424H/S425L/S504A/S564R/S573A/S592G/T428E/T494I/T576S/T580M/V402I/V409A/V543I/V575E/V581E/V621M/V635I/Y400N); assay: Calcium mobilization in HEK293 cells expressing TRPV2 chimera RHR; type: cell-based; conditions: transient expression in HEK293
# T3 construct: expressed in transfected cells; host or cells: HEK293, transient, pCI-neo
# Procedure: The deletion mutant constructs were then transfected into HEK293 cells using Fugene 6 reagent (Roche) as per the manufacturer's instructions. At 24 hours post-transfection, the cells were harvested and replated in fresh DMEM medium supplemented with 10% fetal bovine serum, 100 units/ml penicillin, and 100 μg/ml streptomycin. The cells were distributed onto poly-D-Lysine coated 96-or 384-well plates at a density of approximately 40,000 and 10,000 cells per well, respectively. At approximately 48 hours post-transfection, the medium was removed from the assay plate and replaced with Calcium 3 Dye Buffer (Molecular Devices) using the protocol available from the manufacturer. Calcium mobilization was triggered using Δ^9-THC or 2-APB or elevated temperature buffer and measured using either FLIPR or FLEX STATION instruments.
# Based on the predicted topology and primary sequence features of TRPV2, TRPV2 are divided into 3 major domains: 1) the amino-terminal intracellular domain; 2) the transmembrane domain; and 3) the carboxyl-terminal intracellular domain. For a chimera, each domain can be of rat (R) or human (H) origin. Three rat and human TRPV2 chimera were constructed and tested herein. RRH (SEQ ID NO:15) was a chimera comprising rat 1-392 aa, rat 393-646 aa, and human 647-764 aa. RHR (SEQ ID NO:16) was a chimera comprising rat 1-392, human 391-646, and rat 647-761. HRR (SEQ ID NO:17) was a chimera comprising human 1-390, rat 393-646, and rat 647-761.
# DNA molecules encoding the three rat and human TRPV2 chimeras were obtained by fusion PCR. First, DNA molecules encoding the desired TRPV2 domains were amplified by PCR using the rat or human TRPV2 cDNA as the template with synthetic primer DNA containing in-frame sequence that overlapped with the other species domain to be linked. After PCR amplification and purification, DNA molecules encoding the desired TRPV2 domains from human and rat were combined and used as templates for fusion PCR with primer DNA matching the 5′ and 3′ end sequences of the coding sequence for the full length TRPV2 chimera. […]
# [3] = HEK293; read-out: % Response (activation of rat TRPV2)
# [4] = FLIPR, rat TRPV2-expressing HEK293 cells; read-out: EC50 (activation of rat TRPV2)
# [5] = 100 μM compound (anandamide 120 μM); normalized to 100 μM Δ^9-THC
molecule,measurement,setting,value
"CCCCCCCCCCCCCCCC(=O)NCCO [PEA, palmitoylethanolamide]",Emax at 100 µM,rat TRPV2; [3],5%
"CCCCC/C=C\C/C=C\C/C=C\C/C=C\CCCC(=O)OC(CO)CO [2-AG, 2-arachidonylglycerol]",activation of TRPV1,human TRPV1,activated
same,Emax at 100 µM,rat TRPV2; [3],30%
same,Ki,CB2 receptor,1.4 µM
"Cc1cc2cccc3c2n1C(CN1CCOCC1)[C@H](C(=O)c1cccc2ccccc12)O3 (stereo partly drawn) [WIN-55,212-2]",Emax at 100 µM,rat TRPV2; [3],-2%
CCCCCc1cc(O)c2c(c1)OC(C)(C)c1ccc(C)cc1-2 [Cannabinol],activation of TRPV1,human TRPV1,no significant activation
same,EC50,rat TRPV2; [4],77.7 µM
same,Emax at 100 µM,rat TRPV2; [3],68%
"CCCCC/C=C\C/C=C\C/C=C\C/C=C\CCCC(=O)NCCO [Anandamide, N-arachidonoylethanolamine]",activation of TRPV1,human TRPV1,activated
same,activation effect on TRPV2,rat TRPV2,no or minimal activation effect
same,Emax at 100 µM,rat TRPV2; [3],0%
same,Ki,CB2 receptor,1.93 µM
C=C(C)[C@@H]1CCC(C)=C[C@H]1c1c(O)cc(O)cc1CCCCC [CAY10429],Emax at 100 µM,rat TRPV2; [3],0%
CCCC(C)(C)c1ccc2c(c1)OC(C)(C)[C@@H]1CC=C(C)C[C@@H]21 [JWH-133],Emax at 100 µM,rat TRPV2; [3],5%
CCCn1c(C)c(C(=O)c2cccc3ccccc23)c2ccccc21 [JWH015],Emax at 100 µM,rat TRPV2; [3],14%
"CCCCCCC(C)(C)c1ccc(C2CC(O)CCC2CCCO)c(O)c1 (stereo not drawn) [CP55,940]",Emax at 100 µM,rat TRPV2; [3],43%
"Cc1c(C(=O)c2cccc3ccccc23)c2cccc3c2n1C(CN1CCOCC1)CO3 (stereo not drawn) [WIN 55,212-3]",Emax at 100 µM,rat TRPV2; [3],7%
CCCCCCC(C)(C)c1cc(OC)c(C2C=C(CO)[C@H]3CC2C3(C)C)c(OC)c1 (stereo partly drawn) [HU-308],Emax at 100 µM,"rat TRPV2; HEK293, read-out: % Response (activation of rat TRPV2)",10%
C=C(C)[C@@H]1CCC(C)=CC1c1c(OC)cc(C)cc1OC (stereo partly drawn) [O-1918],Emax at 100 µM,rat TRPV2; [3],6%
Cannabidiol,% Response (activation of rat TRPV2),rat TRPV2; [5],163%
same,EC50,rat TRPV2; [4],3.7 µM
2-aminoethoxydiphenyl borate [2-APB],response of rat TRPV2 deletion mutants to the compound,[1],still active
same,response of chimera RHR to the compound,[2],active
same,% Response (activation of rat TRPV2),rat TRPV2; [5],102%
same,EC50,rat TRPV2; [4],8 µM
C=C(C)[C@@H]1CCC(C)=C[C@H]1c1c(O)cc(C)cc1O [O-1821],EC50,rat TRPV2; [4],~20 µM
same,Emax at 100 µM,rat TRPV2; [3],95%
CCCCCCC(C)(C)c1cc(O)c2c(c1)OC(C)(C)[C@H]1CC=C(CO)C[C@H]21 [HU-211],Emax at 100 µM,rat TRPV2; [3],31%
C=C(C)[C@@H]1CCC(C)=C[C@H]1C1=C(O)C(=O)C(CCCCC)=CC1=O [HU-331],EC50,rat TRPV2; [4],~14 µM
same,Emax at 100 µM,rat TRPV2; [3],47%
Nabilone,% Response (activation of rat TRPV2),rat TRPV2; [5],59%
CCCCC/C=C\C/C=C\C/C=C\C/C=C\CCCC(=O)Nc1ccc(O)cc1 [AM404],activation of TRPV1,human TRPV1,activated
same,Emax at 100 µM,rat TRPV2; [3],6%
